Data on three molecules can be found in patent US4857547A, “Novel HMG-CoA reductase inhibitors” (Merck & Co., Inc., priority 1988, dated 1989).

Structures are written as SMILES.

The target in the experiment is T1, HMG-CoA reductase (Rattus norvegicus, UniProt P51639).
T1 sequence (P51639 1-887): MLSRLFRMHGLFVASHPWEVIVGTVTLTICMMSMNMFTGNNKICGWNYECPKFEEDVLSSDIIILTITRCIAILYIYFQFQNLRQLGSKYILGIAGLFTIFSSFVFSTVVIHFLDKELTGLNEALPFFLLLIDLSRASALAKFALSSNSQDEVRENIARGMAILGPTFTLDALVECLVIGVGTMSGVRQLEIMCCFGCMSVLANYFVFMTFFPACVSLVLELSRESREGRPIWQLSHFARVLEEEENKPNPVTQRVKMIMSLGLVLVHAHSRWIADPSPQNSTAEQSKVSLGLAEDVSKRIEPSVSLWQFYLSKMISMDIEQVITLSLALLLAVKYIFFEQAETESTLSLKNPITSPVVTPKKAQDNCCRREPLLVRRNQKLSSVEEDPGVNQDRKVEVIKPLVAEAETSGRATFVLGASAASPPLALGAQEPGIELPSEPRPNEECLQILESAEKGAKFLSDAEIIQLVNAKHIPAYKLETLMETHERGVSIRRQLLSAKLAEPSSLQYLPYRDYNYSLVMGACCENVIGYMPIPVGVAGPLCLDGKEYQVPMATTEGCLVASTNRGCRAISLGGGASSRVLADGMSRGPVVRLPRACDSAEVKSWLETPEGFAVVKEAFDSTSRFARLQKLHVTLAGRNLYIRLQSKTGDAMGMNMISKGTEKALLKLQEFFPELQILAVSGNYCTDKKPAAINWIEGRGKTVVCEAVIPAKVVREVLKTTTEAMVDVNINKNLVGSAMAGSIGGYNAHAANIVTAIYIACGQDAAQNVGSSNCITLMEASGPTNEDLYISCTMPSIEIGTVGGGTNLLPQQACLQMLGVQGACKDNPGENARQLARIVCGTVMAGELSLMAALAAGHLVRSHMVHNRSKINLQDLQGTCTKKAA
Nature of the experiment: intrinsic HMG-CoA reductase inhibition, in vitro protocol (J. Med. Chem., 28, p. 347-358 (1985)). Format: biochemical. The settings on record: compactin (mevastatin) assigned a value of 100; IC50 of test compound compared with that of mevastatin determined simultaneously. How it is done: The intrinsic HMG-CoA reductase inhibition activity of the claimed compounds is measured in the in vitro protocol published in J. Med. Chem., 28, p. 347-358 (1985).
For estimation of relative inhibitory potencies, compactin (i.e., mevastatin) was assigned a value of 100 and the IC50 value of the test compound was compared with that of mevastatin (compactin) determined simultaneously in the published in vitro protocol.
On to `CCC(C)(C)C(=O)O[C@H]1CC(C(=O)O)=CC2=CC[C@H](C)[C@H](CC[C@@H]3C[C@@H](O)CC(=O)O3)[C@H]21` [Example 2, 6(R)-[2-[8(S)-(2,2-dimethylbutyryloxy)-2(S)-methyl-6-carboxy-1,2,3,7,8,8a(R)-hexahydronaphthyl-1(S)]-ethyl]-4(R)-hydroxy-3,4,5,6-tetrahydro-2H-pyran-2-one], for which the “Relative Potency” value was 100.
With `CCC(C)(C)C(=O)O[C@H]1CC(CO)=CC2=CC[C@H](C)[C@H](CC[C@@H]3C[C@@H](O)CC(=O)O3)[C@H]21` [Example 1, 6(R)-[2-[8(S)-(2,2-dimethylbutyryloxy)-2(S)-methyl-6-hydroxymethyl-1,2,3,7,8,8a(R)-hexahydronaphthyl-1(S)]-ethyl]-4(R)-hydroxy-3,4,5,6-tetrahydro-2H-pyran-2-one] the figure was 75; with `CCC(C)(C)C(=O)O[C@H]1CC(COC(=O)Nc2ccccc2)=CC2=CC[C@H](C)[C@H](CC[C@@H]3C[C@@H](O)CC(=O)O3)[C@H]21` [Example 4, 6(R)-[2-[8(S)-(2,2-dimethylbutyryloxy)-2(S)-methyl-6-phenylaminocarbonyloxymethyl-1,2,3,7,8,8a(R)-hexahydronaphthyl-1(S)]-ethyl]-4(R)-hydroxy-3,4,5,6-tetrahydro-2H-pyran-2-one], 200.
